# From patent US8278345B2, “Inhibitors of glutaminyl cyclase” (Probiodrug AG, priority 2006, dated 2012)
# Read-outs that look alike come from different tables or passages of the source.
# Target: hQC (Homo sapiens, UniProt Q16769)
# Experiment: Inhibitor assay for glutaminyl cyclase activity (fluorometric, H-Gln-βNA / H-Gln-AMC)
# Format: biochemical
# Summary of the method: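 Ki values came from fitting progress curves to a competitive inhibition model; rapid screens used 4 mM inhibitor with substrate at KM. QC activity was read at 30 °C via auxiliary pyroglutamyl aminopeptidase releasing βNA (0.2 mM H-Gln-βNA, 0.2 M Tris pH 8.0, 20 mM EDTA) or AMC (0.05 M Tris pH 8.0, 5 mM EDTA).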
# [1] = compound from preparative synthesis, purified, read-out: IC50 hQC
# Sequence of hQC (Q16769 29-361): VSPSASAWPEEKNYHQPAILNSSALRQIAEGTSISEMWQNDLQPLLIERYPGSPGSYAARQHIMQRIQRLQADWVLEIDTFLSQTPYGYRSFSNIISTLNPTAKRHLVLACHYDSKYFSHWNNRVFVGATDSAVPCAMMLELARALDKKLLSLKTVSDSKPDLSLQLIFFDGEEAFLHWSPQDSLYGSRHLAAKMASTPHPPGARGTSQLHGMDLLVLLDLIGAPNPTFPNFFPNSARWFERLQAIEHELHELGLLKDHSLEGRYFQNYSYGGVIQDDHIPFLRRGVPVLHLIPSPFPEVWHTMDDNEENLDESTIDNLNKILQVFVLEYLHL
Compound,IC50 (read-out: IC50) [nM],IC50 [1] [nM]
"O=C1C(O)=C(c2ccc(O)cc2)C(c2cccc(F)c2)N1c1ccc2[nH]cnc2c1 (stereo not drawn) [Compound 363, 1-(1H-Benzoimidazol-5-yl)-5-(3-fluoro-phenyl)-3-hydroxy-4-(4-hydroxy-phenyl)-1,5-dihydro-pyrrol-2-one]",670,
"O=C1C(O)=C(c2ccc(O)cc2)C(c2cccc3cccnc23)N1c1ccc2[nH]cnc2c1 (stereo not drawn) [Compound 364, 1-(1H-Benzoimidazol-5-yl)-3-hydroxy-4-(4-hydroxy-phenyl)-5-quinolin-8-yl-1,5-dihydro-pyrrol-2-one]",5080,
"CC(C)C1=C(O)C(=O)N(c2ccc3[nH]cnc3c2)C1c1c(F)ccc(Cl)c1F (stereo not drawn) [Compound 365, 1-(1H-Benzoimidazol-5-yl)-5-(3-chloro-2,6-difluoro-phenyl)-3-hydroxy-4-isopropyl-1,5-dihydro-pyrrol-2-one]",8050,
"CC(=O)C1=C(O)C(=O)N(c2ccc3[nH]cnc3c2)C1c1ccco1 (stereo not drawn) [Compound 366, 4-Acetyl-1-(1H-benzoimidazol-5-yl)-5-furan-2-yl-3-hydroxy-1,5-dihydro-pyrrol-2-one]",2380,
"CC(=O)C1=C(O)C(=O)N(c2ccc3[nH]cnc3c2)C1c1ccsc1 (stereo not drawn) [Compound 367, 4-Acetyl-1-(1H-benzoimidazol-5-yl)-3-hydroxy-5-thiophen-3-yl-1,5-dihydro-pyrrol-2-one]",760,
"CCCC(=O)C1=C(O)C(=O)N(c2ccc3[nH]cnc3c2)C1c1ccc2cccc(O)c2n1 (stereo not drawn) [Compound 368, 1-(1H-Benzoimidazol-5-yl)-4-butyryl-3-hydroxy-5-(8-hydroxy-quinolin-2-yl)-1,5-dihydro-pyrrol-2-one]",4,
"O=C(C1=C(O)C(=O)N(c2ccc3[nH]cnc3c2)C1c1ccc(CO)o1)c1cccs1 (stereo not drawn) [Compound 369, 1-(1H-Benzoimidazol-5-yl)-3-hydroxy-5-(5-hydroxymethyl-furan-2-yl)-4-(thiophene-2-carbonyl)-1,5-dihydro-pyrrol-2-one]",1570,
"O=C(C1=C(O)C(=O)N(c2ccc3[nH]cnc3c2)C1c1cccc(F)c1)C1CC1 (stereo not drawn) [Compound 370, 1-(1H-Benzoimidazol-5-yl)-4-cyclopropanecarbonyl-5-(3-fluoro-phenyl)-3-hydroxy-1,5-dihydro-pyrrol-2-one]",7690,
"CC(C)C1=C(O)C(=O)N(c2ccc3[nH]cnc3c2)C1c1ccco1 (stereo not drawn) [Compound 371, 1-(1H-Benzoimidazol-5-yl)-5-furan-2-yl-3-hydroxy-4-isopropyl-1,5-dihydro-pyrrol-2-one]",5530,
"O=C(C1=C(O)C(=O)N(c2ccc3[nH]cnc3c2)C1c1ccc(Cl)c(Cl)c1)C1CCCCC1 (stereo not drawn) [Compound 372, 1-(1H-Benzoimidazol-5-yl)-4-cyclohexanecarbonyl-5-(3,4-dichloro-phenyl)-3-hydroxy-1,5-dihydro-pyrrol-2-one]",400,13.3
"O=C1C(O)=C(c2ccccc2)C(c2cc3ccccc3nc2Cl)N1c1ccc2[nH]cnc2c1 (stereo not drawn) [Compound 373, 1-(1H-Benzoimidazol-5-yl)-5-(2-chloro-quinolin-3-yl)-3-hydroxy-4-phenyl-1,5-dihydro-pyrrol-2-one]",4090,
"O=C(O)c1ccc(C2C(C(=O)C3CCCCC3)=C(O)C(=O)N2c2ccc3[nH]cnc3c2)o1 (stereo not drawn) [Compound 374, 5-[1-(1H-Benzoimidazol-5-yl)-3-cyclohexanecarbonyl-4-hydroxy-5-oxo-2,5-dihydro-1H-pyrrol-2-yl]-furan-2-carboxylic acid]",760,
"CC(=O)C1=C(O)C(=O)N(c2ccc3[nH]cnc3c2)C1C1CC=CCC1 (stereo not drawn) [Compound 375, 4-Acetyl-1-(1H-benzoimidazol-5-yl)-5-cyclohex-3-enyl-3-hydroxy-1,5-dihydro-pyrrol-2-one]",9580,
"CC(=O)C1=C(O)C(=O)N(c2ccc3[nH]cnc3c2)C1c1ccc2nsnc2c1 (stereo not drawn) [Compound 376, 4-Acetyl-1-(1H-benzoimidazol-5-yl)-5-benzo[c][1,2,5]thiadiazol-5-yl-3-hydroxy-1,5-dihydro-pyrrol-2-one]",4,8.7
"CC(C)C1=C(O)C(=O)N(c2ccc3[nH]cnc3c2)C1c1ccc(O)c(Br)c1 (stereo not drawn) [Compound 377, 1-(1H-Benzoimidazol-5-yl)-5-(3-bromo-4-hydroxy-phenyl)-3-hydroxy-4-isopropyl-1,5-dihydro-pyrrol-2-one]",1480,
"CCCC(=O)C1=C(O)C(=O)N(c2ccc3[nH]cnc3c2)C1c1cc[nH]n1 (stereo not drawn) [Compound 378, 1-(1H-Benzoimidazol-5-yl)-4-butyryl-3-hydroxy-5-(1H-pyrazol-3-yl)-1,5-dihydro-pyrrol-2-one]",4000,
"O=C(C1=C(O)C(=O)N(c2ccc3[nH]cnc3c2)C1c1cc[nH]n1)C1CCCCC1 (stereo not drawn) [Compound 379, 1-(1H-Benzoimidazol-5-yl)-4-cyclohexanecarbonyl-3-hydroxy-5-(1H-pyrazol-3-yl)-1,5-dihydro-pyrrol-2-one]",5260,
"CC1=C(O)C(=O)N(c2ccc3[nH]cnc3c2)C1c1ccc2nsnc2c1 (stereo not drawn) [Compound 380, 1-(1H-Benzoimidazol-5-yl)-5-benzo[c][1,2,5]thiadiazol-5-yl-3-hydroxy-4-methyl-1,5-dihydro-pyrrol-2-one]",1030,
"Cc1cccc(C2C(C(=O)C3CCCCC3)=C(O)C(=O)N2c2ccc3[nH]cnc3c2)n1 (stereo not drawn) [Compound 381, 1-(1H-Benzoimidazol-5-yl)-4-cyclohexanecarbonyl-3-hydroxy-5-(6-methyl-pyridin-2-yl)-1,5-dihydro-pyrrol-2-one]",1750,
"Cc1ccc2occ(C3C(C(=O)C(C)(C)C)=C(O)C(=O)N3c3ccc4[nH]cnc4c3)c(=O)c2c1 (stereo not drawn) [Compound 382, 1-(1H-Benzoimidazol-5-yl)-4-(2,2-dimethyl-propionyl)-3-hydroxy-5-(6-methyl-4-oxo-4H-chromen-3-yl)-1,5-dihydro-pyrrol-2-one]",4000,
"CC(C)(C)C(=O)C1=C(O)C(=O)N(c2ccc3[nH]cnc3c2)C1c1cccc(F)c1F (stereo not drawn) [Compound 383, 1-(1H-Benzoimidazol-5-yl)-5-(2,3-difluoro-phenyl)-4-(2,2-dimethyl-propionyl)-3-hydroxy-1,5-dihydro-pyrrol-2-one]",4090,
"Cc1cccc(C2C(c3c[nH]c4ccccc34)=C(O)C(=O)N2c2ccc3[nH]cnc3c2)n1 (stereo not drawn) [Compound 385, 1-(1H-Benzoimidazol-5-yl)-3-hydroxy-4-(1H-indol-3-yl)-5-(6-methyl-pyridin-2-yl)-1,5-dihydro-pyrrol-2-one]",760,
"CC1=C(O)C(=O)N(c2ccc3[nH]cnc3c2)C1c1ccccc1F (stereo not drawn) [Compound 386, 1-(1H-Benzoimidazol-5-yl)-5-(2-fluoro-phenyl)-3-hydroxy-4-methyl-1,5-dihydro-pyrrol-2-one]",1930,
"Cc1cc(C2C(C(C)C)=C(O)C(=O)N2c2ccc3[nH]cnc3c2)oc1C (stereo not drawn) [Compound 388, 1-(1H-Benzoimidazol-5-yl)-5-(4,5-dimethyl-furan-2-yl)-3-hydroxy-4-isopropyl-1,5-dihydro-pyrrol-2-one]",3190,
"O=C(O)c1ccc(C2C(c3ccc(O)cc3)=C(O)C(=O)N2c2ccc3[nH]cnc3c2)o1 (stereo not drawn) [Compound 389, 5-[1-(1H-Benzoimidazol-5-yl)-4-hydroxy-3-(4-hydroxy-phenyl)-5-oxo-2,5-dihydro-1H-pyrrol-2-yl]-furan-2-carboxylic acid]",220,
